Measured values taken from publication PMC9019904, “AD Informer Set: Chemical tools to facilitate Alzheimer's disease drug discovery” (Alzheimer's & Dementia : Translational Research & Clinical …, 2022).
≈ marks a conversion by molar mass, not a printed value.

Columns and labels:
[1] = system: HMC3 (human microglia) cell line; experiment: pHrodo-myelin phagocytosis/cell viability high content imaging assay: phagocytosis signal; assay type: cell-based
How it was run: (§1)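 HCI read-out ~22 h post pHrodo-myelin; phagocytosis + viability simultaneously; 3 parameters extracted; intensity up = early apoptosis, down = later apoptosis.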

[2] = system: cellular system; conditions: published cellular activity at 10 μM; cited from earlier work
[3] = system: BV2 (mouse microglia) cell line; experiment: pHrodo-myelin phagocytosis/cell viability high content imaging assay: viability (cell count, nuclear area, nuclear intensity)
How it was run: (§2)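 Viability was read as total cell count per well by high-content imaging, with mean average nuclear intensity per cell profiling apoptosis (rise early, fall late). Compounds were given at 10 μM for 48 h, pHrodo-myelin being added for the final 20 h. Values are means of two points as % untreated control.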

[4] = system: BV2 (mouse microglia) cell line; experiment: pHrodo-myelin phagocytosis/cell viability high content imaging assay: phagocytosis signal; assay type: cell-based
How it was run: as §1

[5] = Kinetic solubility in aqueous buffer pH 7.4 by total chemiluminescent nitrogen determination (Analiza); conditions: aqueous buffer, pH 7.4, aqueous buffer, kinetic from dmso stock
[6] = system: HMC3 (human microglia) cell line; experiment: pHrodo-myelin phagocytosis/cell viability high content imaging assay: viability (cell count, nuclear area, nuclear intensity)
How it was run: as §2

Row | SMILES | Reported as cell active (<10 μM) [2] | solubility kinetic [5] [µM] | Mouse microglial cytotoxicity at 10 μM (<70% control) ([3]; 10 μM, BV2) | Human microglial cytotoxicity at 10 μM (<70% control) ([6]; 10 μM, HMC3) | Inhibition of mouse microglial phagocytosis at 10 μM (<70% control) ([4]; 10 μM, BV2) | Inhibition of human microglial phagocytosis at 10 μM (<70% control) ([1]; 10 μM, HMC3) | also measured
1 | C=CC[N+]1([C@H]2C[C@H]3[C@@H]4CC[C@H]5C[C@H](O)[C@@H](N6CCOCC6)C[C@]5(C)[C@H]4CC[C@]3(C)[C@H]2OC(C)=O)CCCC1 [Rocuronium Bromide] | Y (Published data supports that the compound is active in a cellular system when dosed at 10 μM (Y/N)) | – | – | – | – | – | Inhibition of human microglial phagocytosis at 10 μM (<70% control) ([1]; HMC3 cells, 10 μM): Y (The compound was found to inhibit phagocytosis (response threshold: <70% control) when human immortalized microglial cells were dosed at 10 μM (Y: yes))
2 | CNC(=O)c1cccc(-c2ccc3c(N4CCOC[C@@H]4C)nc(N4CCOC[C@@H]4C)nc3n2)c1 [Vistusertib] | Y (Published data supports that the compound is active in a cellular system when dosed at 10 μM (Y/N)) | – | – | – | – | – | Mouse microglial cytotoxicity at 10 μM (<70% control) ([3]; BV2 cells, 10 μM, cell count <70% control): Y (The compound was found to be cytotoxic (cell count threshold: <70% control) when murine immortalized microglial cells were dosed at 10 μM (Y: yes)); Stimulation of mouse microglial phagocytosis at 10 μM (>150% control) ([4]; BV2 cells, 10 μM): Y (The compound was found to stimulate phagocytosis (response threshold: >150% control) when murine immortalized microglial cells were dosed at 10 μM (Y: yes))
3 | CC(C)(C(=O)O)c1ccc(C(O)CCCN2CCC(C(O)(c3ccccc3)c3ccccc3)CC2)cc1 (stereo not shown) [Fexofenadine] | Y (Published data supports that the compound is active in a cellular system when dosed at 10 μM (Y/N)) | – | – | – | – | – | –
4 | O=S(=O)(NC1CCNCC1)c1cc(S(=O)(=O)c2ccccc2)ccc1C(F)(F)F [WAY-316606] | Y (Published data supports that the compound is active in a cellular system when dosed at 10 μM (Y/N)) | – | – | – | – | – | Stimulation of mouse microglial phagocytosis at 10 μM (>150% control) ([4]; BV2 cells, 10 μM): Y (The compound was found to stimulate phagocytosis (response threshold: >150% control) when murine immortalized microglial cells were dosed at 10 μM (Y: yes))
5 | O=C1C=C(NCCc2cc(Br)c(O)c(Br)c2)C(=O)c2ncccc21 [NSC668394] | – | 18.4 (≈ 8.32 µg/mL) | – | – | – | – | Mouse microglial cytotoxicity at 10 μM (<70% control) ([3]; BV2, 10 μM): Y (The compound was found to be cytotoxic (cell count threshold: <70% control) when murine immortalized microglial cells were dosed at 10 μM (Y: yes)); Human microglial cytotoxicity at 10 μM (<70% control) ([6]; HMC3, 10 μM): Y (The compound was found to be cytotoxic (cell count threshold: <70% control) when human immortalized microglial cells were dosed at 10 μM (Y: yes)); Stimulation of mouse microglial phagocytosis at 10 μM (>150% control) ([4]; BV2, 10 μM): Y (The compound was found to stimulate phagocytosis (response threshold: >150% control) when murine immortalized microglial cells were dosed at 10 μM (Y: yes)); Inhibition of human microglial phagocytosis at 10 μM (<70% control) ([1]; HMC3, 10 μM): Y (The compound was found to inhibit phagocytosis (response threshold: <70% control) when human immortalized microglial cells were dosed at 10 μM (Y: yes))
6 | CCCCCOc1cc2c(cc1-c1cc(/C=C/C(=O)O)ccc1O)C(C)(C)CCC2(C)C [UVI 3003] | Y (Published data supports that the compound is active in a cellular system when dosed at 10 μM (Y/N)) | – | – | – | – | – | –
7 | C=C(c1ccc(C(=O)O)cc1)c1cc2c(cc1C)C(C)(C)CCC2(C)C [Bexarotene] | Y (Published data supports that the compound is active in a cellular system when dosed at 10 μM (Y/N)) | – | – | – | – | – | –
8 | CC(=O)NCC(=O)N1[C@@H]2CC[C@H]1c1ccc(Nc3ncc(C(F)(F)F)c(NC4CCC4)n3)cc12 [PF-03814735 (MolPort-023-219-160)] | – | 159 (≈ 75.6 µg/mL) | Y (The compound was found to be cytotoxic (cell count threshold: <70% control) when murine immortalized microglial cells were dosed at 10 μM (Y: yes)) | Y (The compound was found to be cytotoxic (cell count threshold: <70% control) when human immortalized microglial cells were dosed at 10 μM (Y: yes)) | Y (The compound was found to inhibit phagocytosis (response threshold: <70% control) when murine immortalized microglial cells were dosed at 10 μM (Y: yes)) | Y (The compound was found to inhibit phagocytosis (response threshold: <70% control) when human immortalized microglial cells were dosed at 10 μM (Y: yes)) | –
9 | CN(C)CCCOc1c(Br)cc(/C=C/C(=O)NCCCOc2c(Br)cc(CCN(C)C)cc2Br)cc1Br [Psammaplysene A] | – | 125 (≈ 96.4 µg/mL) | Y (The compound was found to be cytotoxic (cell count threshold: <70% control) when murine immortalized microglial cells were dosed at 10 μM (Y: yes)) | Y (The compound was found to be cytotoxic (cell count threshold: <70% control) when human immortalized microglial cells were dosed at 10 μM (Y: yes)) | Y (The compound was found to inhibit phagocytosis (response threshold: <70% control) when murine immortalized microglial cells were dosed at 10 μM (Y: yes)) | Y (The compound was found to inhibit phagocytosis (response threshold: <70% control) when human immortalized microglial cells were dosed at 10 μM (Y: yes)) | –
10 | Cn1nccc1Nc1nccc(-c2ccn([C@H](CO)c3ccc(Cl)c(F)c3)c(=O)c2)n1 [Ravoxertinib (GDC0994)] | – | 3.8 (≈ 1.68 µg/mL) | Y (The compound was found to be cytotoxic (cell count threshold: <70% control) when murine immortalized microglial cells were dosed at 10 μM (Y: yes)) | Y (The compound was found to be cytotoxic (cell count threshold: <70% control) when human immortalized microglial cells were dosed at 10 μM (Y: yes)) | Y (The compound was found to inhibit phagocytosis (response threshold: <70% control) when murine immortalized microglial cells were dosed at 10 μM (Y: yes)) | Y (The compound was found to inhibit phagocytosis (response threshold: <70% control) when human immortalized microglial cells were dosed at 10 μM (Y: yes)) | –
11 | CSc1ccc2c(c1)c(CCN)c(C)n2Cc1ccc(Cl)cc1Cl.Cl [K149] | – | 5.7 | Y (The compound was found to be cytotoxic (cell count threshold: <70% control) when murine immortalized microglial cells were dosed at 10 μM (Y: yes)) | Y (The compound was found to be cytotoxic (cell count threshold: <70% control) when human immortalized microglial cells were dosed at 10 μM (Y: yes)) | Y (The compound was found to inhibit phagocytosis (response threshold: <70% control) when murine immortalized microglial cells were dosed at 10 μM (Y: yes)) | Y (The compound was found to inhibit phagocytosis (response threshold: <70% control) when human immortalized microglial cells were dosed at 10 μM (Y: yes)) | –
12 | Cc1cc2c(cc1-c1cc(/C=C\C(=O)O)ccc1O)C(C)(C)CCC2(C)C [CD3254] | Y (Published data supports that the compound is active in a cellular system when dosed at 10 μM (Y/N)) | – | – | – | – | – | –
13 | C=CC(=O)Nc1cc2c(Nc3ccc(F)c(Cl)c3)ncnc2cc1OCCCN1CCOCC1 [Canertinib] | – | 11 (≈ 5.35 µg/mL) | – | – | – | – | Mouse microglial cytotoxicity at 10 μM (<70% control) ([3]; BV2, 10 μM): Y (The compound was found to be cytotoxic (cell count threshold: <70% control) when murine immortalized microglial cells were dosed at 10 μM (Y: yes)); Human microglial cytotoxicity at 10 μM (<70% control) ([6]; HMC3, 10 μM): Y (The compound was found to be cytotoxic (cell count threshold: <70% control) when human immortalized microglial cells were dosed at 10 μM (Y: yes)); Inhibition of mouse microglial phagocytosis at 10 μM (<70% control) ([4]; BV2, 10 μM): Y (The compound was found to inhibit phagocytosis (response threshold: <70% control) when murine immortalized microglial cells were dosed at 10 μM (Y: yes)); Inhibition of human microglial phagocytosis at 10 μM (<70% control) ([1]; HMC3, 10 μM): Y (The compound was found to inhibit phagocytosis (response threshold: <70% control) when human immortalized microglial cells were dosed at 10 μM (Y: yes))
14 | Cc1cc(OCc2nnc(SC3CCCC3)n2-c2cccnc2)ccc1-c1ccc(S(C)(=O)=O)cc1 [NMS-873] | – | 3.8 (≈ 1.98 µg/mL) | – | – | – | – | Mouse microglial cytotoxicity at 10 μM (<70% control) ([3]; BV2, 10 μM, cell count <70% control): Y (The compound was found to be cytotoxic (cell count threshold: <70% control) when murine immortalized microglial cells were dosed at 10 μM (Y: yes)); Human microglial cytotoxicity at 10 μM (<70% control) ([6]; HMC3, 10 μM, cell count <70% control): Y (The compound was found to be cytotoxic (cell count threshold: <70% control) when human immortalized microglial cells were dosed at 10 μM (Y: yes)); Inhibition of mouse microglial phagocytosis at 10 μM (<70% control) ([4]; BV2, 10 μM): Y (The compound was found to inhibit phagocytosis (response threshold: <70% control) when murine immortalized microglial cells were dosed at 10 μM (Y: yes)); Inhibition of human microglial phagocytosis at 10 μM (<70% control) ([1]; HMC3, 10 μM): Y (The compound was found to inhibit phagocytosis (response threshold: <70% control) when human immortalized microglial cells were dosed at 10 μM (Y: yes))
15 | CC1(COc2ccc3c(c2)ncn3-c2ccc3cccc(N4CCC(N)CC4)c3n2)COC1 [Crenolanib] | – | 115 (≈ 51.1 µg/mL) | Y (The compound was found to be cytotoxic (cell count threshold: <70% control) when murine immortalized microglial cells were dosed at 10 μM (Y: yes)) | Y (The compound was found to be cytotoxic (cell count threshold: <70% control) when human immortalized microglial cells were dosed at 10 μM (Y: yes)) | Y (The compound was found to inhibit phagocytosis (response threshold: <70% control) when murine immortalized microglial cells were dosed at 10 μM (Y: yes)) | Y (The compound was found to inhibit phagocytosis (response threshold: <70% control) when human immortalized microglial cells were dosed at 10 μM (Y: yes)) | –
16 | Cc1cc2c(cc1C(=O)c1ccc(C(=O)O)cc1)C(C)(C)CCC2(C)C [LG-100064] | Y (Published data supports that the compound is active in a cellular system when dosed at 10 μM (Y/N)) | – | – | – | – | – | –
